What was measured:
Assay type in all cases: physicochemical
[1] = Influencing factor study of crystalline form α of hydrochloride and crystalline form I of hydrobromide
Protocol: Sample of the crystalline form α of the hydrochloride and the crystalline form I of the hydrobromide of the compound of formula II were let stand open to examine the stability of the samples in conditions of illumination (4500 Lux), high temperature (40° C. and 60° C.) and high humidity (RH 75% and RH 92.5%) in a period of 30 days.

[2] = DVS (dynamic vapor sorption) characterization
Protocol: DVS refers to dynamic vapor sorption: The measurement was conducted with a Surface Measurement Systems advantage 2 at 25° C., starting from 50% humidity in humidity range of 0%-95% with a step size of 10%. The judging criterion was that the mass change of each gradient dM/dT is less than 0.002 and TMAX is less than 360 min in two circles.

[3] = Long-term/accelerated stability study of crystalline form α of hydrochloride and crystalline form I of hydrobromide
Protocol: The crystalline form α of the hydrochloride of the compound of formula II was let stand in conditions of 25° C./60% RH and 40° C./75% RH to examine its stability.
The crystalline form I of the hydrobromide of the compound of formula II was let stand in conditions of 25° C./60% RH and 40° C./75% RH to examine its stability.

Chiral purity (%) ([1]; 40° C., 7 days): 99.131%
Color and appearance ([1]; 40° C., 7 days): White solid
Crystalline form ([1]; 40° C., 7 days): Not changed
Main peak purity (%) ([1]; 40° C., 7 days): 96.915%
Chiral purity (%) ([1]; 40° C., 14 days): 99.115%
Color and appearance ([1]; 40° C., 14 days): White solid
Crystalline form ([1]; 40° C., 14 days): Not changed
Main peak purity (%) ([1]; 40° C., 14 days): 96.921%
Chiral purity (%) ([1]; 40° C., 30 days): 99.207%
Chloride ion content (%) ([1]; 40° C., 30 days): 5.75%
Color and appearance ([1]; 40° C., 30 days): White solid
Crystalline form ([1]; 40° C., 30 days): Not changed
Main peak purity (%) ([1]; 40° C., 30 days): 96.824%
Chiral purity (%) ([1]; 60° C., 7 days): 99.136%
Color and appearance ([1]; 60° C., 7 days): White solid
Crystalline form ([1]; 60° C., 7 days): Not changed
Main peak purity (%) ([1]; 60° C., 7 days): 96.884%
Chiral purity (%) ([1]; 60° C., 14 days): 99.106%
Color and appearance ([1]; 60° C., 14 days): White solid
Crystalline form ([1]; 60° C., 14 days): Not changed
Main peak purity (%) ([1]; 60° C., 14 days): 96.907%
Chiral purity (%) ([1]; 60° C., 30 days): 99.232%
Chloride ion content (%) ([1]; 60° C., 30 days): 5.65%
Color and appearance ([1]; 60° C., 30 days): White solid
Crystalline form ([1]; 60° C., 30 days): Not changed
Main peak purity (%) ([1]; 60° C., 30 days): 96.814%
Chiral purity (%) ([1]; 75% RH, 7 days): 99.138%
Color and appearance ([1]; 75% RH, 7 days): White solid
Crystalline form ([1]; 75% RH, 7 days): Not changed
Main peak purity (%) ([1]; 75% RH, 7 days): 96.916%
Chiral purity (%) ([1]; 75% RH, 14 days): 99.130%
Color and appearance ([1]; 75% RH, 14 days): White solid
Crystalline form ([1]; 75% RH, 14 days): Not changed
Main peak purity (%) ([1]; 75% RH, 14 days): 96.908%
Chiral purity (%) ([1]; 75% RH, 30 days): 99.220%
Chloride ion content (%) ([1]; 75% RH, 30 days): 5.68%
Color and appearance ([1]; 75% RH, 30 days): White solid
Crystalline form ([1]; 75% RH, 30 days): Not changed
Main peak purity (%) ([1]; 75% RH, 30 days): 96.903%
Chiral purity (%) ([1]; 92.5% RH, 7 days): 99.132%
Color and appearance ([1]; 92.5% RH, 7 days): White solid
Crystalline form ([1]; 92.5% RH, 7 days): Not changed
Main peak purity (%) ([1]; 92.5% RH, 7 days): 96.912%
Chiral purity (%) ([1]; 92.5% RH, 14 days): 99.111%
Color and appearance ([1]; 92.5% RH, 14 days): White solid
Crystalline form ([1]; 92.5% RH, 14 days): Not changed
Main peak purity (%) ([1]; 92.5% RH, 14 days): 96.908%
Chiral purity (%) ([1]; 92.5% RH, 30 days): 99.211%
Chloride ion content (%) ([1]; 92.5% RH, 30 days): 5.67%
Color and appearance ([1]; 92.5% RH, 30 days): White solid
Crystalline form ([1]; 92.5% RH, 30 days): Not changed
Main peak purity (%) ([1]; 92.5% RH, 30 days): 96.880%
Chiral purity (%) ([1]; 4500 Lux, 7 days): 99.137%
Color and appearance ([1]; 4500 Lux, 7 days): White solid
Crystalline form ([1]; 4500 Lux, 7 days): Not changed
Main peak purity (%) ([1]; 4500 Lux, 7 days): 96.911%
Chiral purity (%) ([1]; 4500 Lux, 14 days): 99.139%
Color and appearance ([1]; 4500 Lux, 14 days): White solid
Crystalline form ([1]; 4500 Lux, 14 days): Not changed
Main peak purity (%) ([1]; 4500 Lux, 14 days): 96.911%
Chiral purity (%) ([1]; 4500 Lux, 30 days): 99.216%
Chloride ion content (%) ([1]; 4500 Lux, 30 days): 5.71%
Color and appearance ([1]; 4500 Lux, 30 days): White solid
Crystalline form ([1]; 4500 Lux, 30 days): Not changed
Main peak purity (%) ([1]; 4500 Lux, 30 days): 96.810%
Chiral purity (%) ([1]; Initial, 0 days): 99.14%
Chloride ion content (%) ([1]; Initial, 0 days): 5.75%
Color and appearance ([1]; Initial, 0 days): White solid
Crystalline form ([1]; Initial, 0 days): Crystalline
Main peak purity (%) ([1]; Initial, 0 days): 96.925%
Stability (conclusion of influencing factor study) ([1]; illumination, 40° C. and 60° C., high humidities of 75% and 92.5%): good physical and chemical stabilities
DVS weight change ([2]; 25° C., 20.0% RH to 80.0% RH): 0.549%
Hygroscopicity ([2]; DVS, 25° C., 20.0% RH to 80.0% RH): slightly hygroscopic
Vapor sorption ([2]; accelerated test condition, 70% humidity): about 0.574%
Vapor sorption ([2]; extreme condition, 90% humidity): about 1.040%
Vapor sorption ([2]; normal storage condition, 60% humidity/25° C.): about 0.463%
Chiral purity (%) ([3]; 25° C., 60% RH, Day 7): 99.131%
Color and appearance ([3]; 25° C., 60% RH, Day 7): White solid
Crystalline form ([3]; 25° C., 60% RH, Day 7): Not changed
Main peak purity (%) ([3]; 25° C., 60% RH, Day 7): 96.915%
Chiral purity (%) ([3]; 25° C., 60% RH, Day 14): 99.111%
Color and appearance ([3]; 25° C., 60% RH, Day 14): White solid
Crystalline form ([3]; 25° C., 60% RH, Day 14): Not changed
Main peak purity (%) ([3]; 25° C., 60% RH, Day 14): 96.831%
Chiral purity (%) ([3]; 25° C., 60% RH, Month 1): 99.225%
Chloride ion content (%) ([3]; 25° C., 60% RH, Month 1): 5.75%
Color and appearance ([3]; 25° C., 60% RH, Month 1): White solid
Crystalline form ([3]; 25° C., 60% RH, Month 1): Not changed
Main peak purity (%) ([3]; 25° C., 60% RH, Month 1): 96.906%
Chiral purity (%) ([3]; 25° C., 60% RH, Month 2): 99.332%
Chloride ion content (%) ([3]; 25° C., 60% RH, Month 2): 5.74%
Color and appearance ([3]; 25° C., 60% RH, Month 2): White solid
Crystalline form ([3]; 25° C., 60% RH, Month 2): Not changed
Main peak purity (%) ([3]; 25° C., 60% RH, Month 2): 96.883%
Chiral purity (%) ([3]; 25° C., 60% RH, Month 3): 99.239%
Color and appearance ([3]; 25° C., 60% RH, Month 3): White solid
Crystalline form ([3]; 25° C., 60% RH, Month 3): Not changed
Main peak purity (%) ([3]; 25° C., 60% RH, Month 3): 96.749%
Chiral purity (%) ([3]; 25° C., 60% RH, Month 6): 99.187%
Chloride ion content (%) ([3]; 25° C., 60% RH, Month 6): 5.85%
Color and appearance ([3]; 25° C., 60% RH, Month 6): White solid
Crystalline form ([3]; 25° C., 60% RH, Month 6): Not changed
Main peak purity (%) ([3]; 25° C., 60% RH, Month 6): 96.170%
Chiral purity (%) ([3]; 40° C., 75% RH, Day 7): 99.137%
Color and appearance ([3]; 40° C., 75% RH, Day 7): White solid
Crystalline form ([3]; 40° C., 75% RH, Day 7): Not changed
Main peak purity (%) ([3]; 40° C., 75% RH, Day 7): 96.906%
Chiral purity (%) ([3]; 40° C., 75% RH, Day 14): 99.104%
Color and appearance ([3]; 40° C., 75% RH, Day 14): White solid
Crystalline form ([3]; 40° C., 75% RH, Day 14): Not changed
Main peak purity (%) ([3]; 40° C., 75% RH, Day 14): 96.902%
Chiral purity (%) ([3]; 40° C., 75% RH, Month 1): 99.206%
Chloride ion content (%) ([3]; 40° C., 75% RH, Month 1): 5.44%
Color and appearance ([3]; 40° C., 75% RH, Month 1): White solid
Crystalline form ([3]; 40° C., 75% RH, Month 1): Not changed
Main peak purity (%) ([3]; 40° C., 75% RH, Month 1): 96.846%
Chiral purity (%) ([3]; 40° C., 75% RH, Month 2): 99.292%
Chloride ion content (%) ([3]; 40° C., 75% RH, Month 2): 5.86%
Color and appearance ([3]; 40° C., 75% RH, Month 2): White solid
Crystalline form ([3]; 40° C., 75% RH, Month 2): Not changed
Main peak purity (%) ([3]; 40° C., 75% RH, Month 2): 96.780%
Chiral purity (%) ([3]; 40° C., 75% RH, Month 3): 99.149%
Color and appearance ([3]; 40° C., 75% RH, Month 3): White solid
Crystalline form ([3]; 40° C., 75% RH, Month 3): Not changed
Main peak purity (%) ([3]; 40° C., 75% RH, Month 3): 96.664%
Chiral purity (%) ([3]; 40° C., 75% RH, Month 6): 98.972%
Chloride ion content (%) ([3]; 40° C., 75% RH, Month 6): 5.98%
Color and appearance ([3]; 40° C., 75% RH, Month 6): White solid
Crystalline form ([3]; 40° C., 75% RH, Month 6): Not changed
Main peak purity (%) ([3]; 40° C., 75% RH, Month 6): 95.990%
Chiral purity (%) ([3]; Initial, 0): 99.14%
Chloride ion content (%) ([3]; Initial, 0): 5.75%
Color and appearance ([3]; Initial, 0): White solid
Crystalline form ([3]; Initial, 0): Crystalline
Main peak purity (%) ([3]; Initial, 0): 96.925%
Stability (conclusion of long-term/accelerated study) ([3]; long term and acceleration, 6 months): good physical and chemical stability
SMILES: Cl.NC(=O)C[C@H](c1ccc(S(=O)(=O)CC2CC2)cc1)c1nc2cc(-c3ccccc3OC(F)F)c(Cl)cc2[nH]1 [Crystalline form α of hydrochloride of compound of formula I]
Crystalline form before and after DVS (XRPD comparison) ([2]; 0-95% humidity change): crystalline form did not change during DVS
